# Measurements published in patent publication US20240116937A1, “Polymorph of (1S,2S,3S,5R)-3-((6-(difluoromethyl)-5-fluoro-1,2,3,4-tetrahydroisoquinolin-8-yl)oxy)-5-(4-methyl-7H-pyrrolo[2,3-D]pyrimidin-7-yl)cyclopentane-1,2-diol” (Pfizer Inc., priority 2020, published 2024).
# Assay: Hygroscopicity: % mass change (ref dry mass) versus RH, free base compared to hydrochloride salt
# Format: physicochemical
# Description: Hygroscopicity of Free Base (1S,2S,3S,5R)-3-((6-(difluoromethyl)-5-fluoro-1,2,3,4-tetrahydroisoquinolin-8-yl)oxy)-5-(4-methyl-7H-pyrrolo[2,3-d]pyrimidin-7-yl)cyclopentane-1,2-diol Compared to Crystalline (1S,2S,3S,5R)-3-((6-(difluoromethyl)-5-fluoro-1,2,3,4-tetrahydroisoquinolin-8-yl)oxy)-5-(4-methyl-7H-pyrrolo[2,3-d]pyrimidin-7-yl)cyclopentane-1,2-diol hydrochloride salt
compound,measurement,setting,value
"Cc1ncnc2c1ccn2[C@@H]1C[C@H](Oc2cc(C(F)F)c(F)c3c2CNCC3)[C@@H](O)[C@H]1O [Free Base, (1S,2S,3S,5R)-3-((6-(difluoromethyl)-5-fluoro-1,2,3,4-tetrahydroisoquinolin-8-yl)oxy)-5-(4-methyl-7H-pyrrolo[2,3-d]pyrimidin-7-yl)cyclopentane-1,2-diol]",physical stability (hygroscopicity) relative to the dihydrochloride salt of WO2017/212385,,low hygroscopicity
same,% Mass-Ref Dry mass,RH 10,0.1%
same,% Mass-Ref Dry mass,RH 20,0.3%
same,% Mass-Ref Dry mass,RH 30,0.4%
same,% Mass-Ref Dry mass,RH 40,1.8%
same,% Mass-Ref Dry mass,RH 50,2.0%
same,% Mass-Ref Dry mass,RH 60,2.1%
same,% Mass-Ref Dry mass,RH 70,2.2%
same,% Mass-Ref Dry mass,RH 80,2.2%
same,% Mass-Ref Dry mass,RH 90,2.3%
